Structures are written as SMILES.

Chain of Histamine H4 receptor (Q9H3N8 whole entry): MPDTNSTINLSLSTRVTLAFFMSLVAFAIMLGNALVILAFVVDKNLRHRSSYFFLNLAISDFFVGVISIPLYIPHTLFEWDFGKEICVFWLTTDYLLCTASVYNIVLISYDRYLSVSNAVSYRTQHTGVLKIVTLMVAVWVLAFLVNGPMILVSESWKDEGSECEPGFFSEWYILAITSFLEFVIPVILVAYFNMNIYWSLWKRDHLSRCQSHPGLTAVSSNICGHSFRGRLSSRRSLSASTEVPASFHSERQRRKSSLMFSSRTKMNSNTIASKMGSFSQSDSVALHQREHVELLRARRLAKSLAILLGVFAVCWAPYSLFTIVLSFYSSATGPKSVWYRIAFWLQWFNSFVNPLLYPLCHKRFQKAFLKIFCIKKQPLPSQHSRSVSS

The test has as its target Histamine H4 receptor (Homo sapiens, UniProt Q9H3N8). Kind of test: In vitro [3H]histamine Binding Assay. The conditions noted are these: pH 7.4; 4 °C. On the procedure: Prior to the experiments, cell membranes were sedimented by a 10 min centrifugation at 4 °C and 16 0009x g and resuspended in binding buffer (12.5 mM MgCl2, 1 mM EDTA and 75 mM Tris/HCl, pH 7.4). Competition binding experimentswere carried out by incubating membranes, 35 ug/well (prepared from Sf9 cells transiently expressing human H4R, co-expressed with G proteins Galphai2 and Gbeta1gamma2 subunits) in a final volume of 0.2 mL containing binding buffer and [3H]histamine 2x HCl (10 nM, 15.3 Ci/mmol, PerkinElmer, Waltham, MA, USA) in a 96 well microtitre plate. Assays were run in duplicates or triplicates with four or seven appropriate concentrations between 100 nM or 0.1 nM and 100 uM of the test compounds. Amount of experiments was at least 2. Only exceptions were for substance 2, 3, and 4 where only one experiment in duplicates was performed.Incubations were performed for 60 min at 25 °C and shaking at 250 rpm. Non-specific binding was determined.
Compound `CN1CCN(c2nc(N)nc(CN3C(=O)NC(C)(C)C3=O)n2)CC1` [3-((4-Amino-6-(4-methylpiperazin-1-yl)-1,3,5-triazin-2-yl)methyl)-5,5-dimethylimidazolidine-2,4-dione (9)] returned a Ki of 14.6 µM. That is a double-digit micromolar value.

Compound `CN1CCN(c2nc(N)nc(-c3ccncc3)n2)CC1` [4-(4-Methylpiperazin-1-yl)-6-(pyridin-4-yl)-1,3,5-triazin-2-amine (15)] registered an inhibition constant Ki of 3.19 µM. Against the preceding compound, the Ki is about 4.6-fold lower.

For `CN1CCN(c2nc(N)nc(COc3ccc(Cl)cc3)n2)CC1` [4-((4-Chlorophenoxy)methyl)-6-(4-methylpiperazin-1-yl)-1,3,5-triazin-2-amine (14)], the Ki amounted to 10.6 µM.

`CN1CCN(C(=O)c2cccc(Cl)c2)CC1` [(3-Chlorophenyl)(4-methylpiperazin-1-yl)methanone (2)]: the Ki is 3.88 µM.

In the case of `CN1CCN(CCCNC(=O)Nc2cccc(Cl)c2)CC1` [1-(3-Chlorophenyl)-3-(3-(4-methylpiperazin-1-yl)propyl)urea (7)], the inhibitory constant (Ki) is > 100 µM.

As to `CN1CCN(CCCNC(=O)c2cc3cc(Cl)ccc3[nH]2)CC1` [5-Chloro-N-(3-(4-methylpiperazin-1-yl)propyl)-1H-indole-2-carboxamide (5)], the Ki was > 100 µM.

Take `CN1CCN(C(=O)c2ccccc2Cl)CC1` [(2-Chlorophenyl)(4-methylpiperazin-1-yl)methanone (1)]: the Ki is > 100 µM.

As to `CN1CCN(c2nc(N)nc(Cc3ccccc3)n2)CC1` [4-Benzyl-6-(4-methylpiperazin-1-yl)-1,3,5-triazin-2-amine (13)], the Ki amounted to 7.5 µM. In other words, the single-digit micromolar range.

The compound `CN1CCN(C(=O)Nc2ccc(Cl)cc2)CC1` [N-(4-Chlorophenyl)-4-methylpiperazine-1-carboxamide (4)] returned a Ki of 3.52 µM. This Ki is about 2.1-fold lower than that of the compound before.

As for `CN1CCN(CCCNC(=O)c2sc3cc(Cl)ccc3c2Cl)CC1` [3,6-Dichloro-N-(3-(4-methylpiperazin-1-yl)propyl)benzo[b]thiophene-2-carboxamide (6)], the Ki is > 100 µM.

Compound `CN1CCN(c2nc(N)nc(Cc3cccc4ccccc34)n2)CC1` [4-(4-Methylpiperazin-1-yl)-6-(naphthalen-1-ylmethyl)-1,3,5-triazin-2-amine (12)] gave a Ki of 5.6 µM.

In turn, `CN1CCN(C(=O)c2ccc(Cl)cc2)CC1` [(4-Chlorophenyl)(4-methylpiperazin-1-yl)methanone (3)] displayed a Ki of 7.55 µM. This Ki and that of the compound before are within 1.5-fold of each other.

`CC(C)Cc1nc(N)nc(N2CCN(C)CC2)n1` [4-(4-Methylpiperazin-1-yl)-6-(2-methylpropyl)-1,3,5-triazin-2-amine (10)] gave an inhibitory constant (Ki) of 8.26 µM. The Ki values of the last two compounds are within 1.5-fold of each other.
